Source: article PMC4088952 (Psychoneuroendocrinology, 2014)
“And” between values parts separate entries of the source, which are not always exact repeats. Identical values can stand only once.

Columns and labels:
plasma OT levels = test: Plasma oxytocin levels after oral MDMA; type: in vivo, humans
subjective drug effects = test: Drug Effects Questionnaire; type: in vivo, humans; settings: oral MDMA; all subjective ratings (DEQ and VAS)
[1] = tested on: heart rate and blood pressure; test: Cardiovascular measures; type: in vivo, humans; settings: intranasal oxytocin 20 IU or 40 IU versus placebo

SMILES	plasma OT levels compared to placebo (plasma OT levels; oral MDMA 0.75 mg/kg, N=14, t[13] = 2.96, p = 0.07)	duration of plasma OT elevation (plasma OT levels; oral MDMA 1.5 mg/kg)	time of mean peak plasma OT concentration after capsule ingestion (plasma OT levels; oral MDMA 1.5 mg/kg, N=14)	time to significantly elevated plasma OT following capsule administration (plasma OT levels; oral MDMA 1.5 mg/kg, first time point)	time of peak effects on all subjective ratings after capsule ingestion (subjective drug effects)	cardiovascular and subjective effects [1]	plasma OT levels compared to placebo (intranasal oxytocin 20 IU, N=6)	duration of plasma OT elevation (intranasal oxytocin 40 IU)	time of peak plasma OT after nasal spray administration (intranasal oxytocin 40 IU, N=8)
CNC(C)Cc1ccc2c(c1)OCO2 (racemic) [MDMA, ±3,4-methylenedioxymethamphetamine]	slightly increased compared to placebo but this difference did not reach significance	3 h	90 to 120 min and 120 min	≤ 60 min	60 to 120 min				
CC[C@H](C)[C@@H]1NC(=O)[C@H](Cc2ccc(O)cc2)NC(=O)[C@@H](N)CSSC[C@@H](C(=O)N2CCC[C@H]2C(=O)N[C@@H](CC(C)C)C(=O)NCC(N)=O)NC(=O)[C@H](CC(N)=O)NC(=O)[C@H](CCC(N)=O)NC1=O [Oxytocin, oxytocin]						no cardiovascular or subjective effects	did not observe an increase in plasma OT	30 min	30 to 60 min
